Results from patent US20080234236A1, “REDUCTION OF ADVERSE EVENTS AFTER PERCUTANEOUS INTERVENTION BY USE OF A THROMBIN RECEPTOR ANTAGONIST” (priority 2007, published 2008).
Where “and” joins values, the source holds several entries; their conditions need not be identical. Equal values may be shown once.

What was measured:
[1] = Phase 2 study (P03573): bleeding in secondary cohort (medically treated); assay type: in vivo, humans
Excerpt: (§1) The behavior of SCH 530348 in humans was further studied in a Phase 2 clinical development program. A key safety issue for SCH 530348 is the potential for incremental bleeding when added to standard of care with other oral antiplatelet therapies as well as parenteral antithrombotics. Therefore, a single Phase 2 study (P03573) was completed to evaluate the safety of SCH 530348 in patients at high risk of bleeding events, i.e., those patients undergoing non-emergent PCI (percutaneous coronary intervention). The goals of this Phase 2 study were to: • Evaluate the safety of SCH 530348 in addition to standard of care with respect to TIMI major and minor bleeding; and, • Observe the effects of SCH 530348 on major adverse cardiac events (“MACE”) in patients successfully completing an interventional procedure.
The primary endpoint (directed to evaluating safety) was the combined […] (“TIMI”) major and TIMI minor bleeding over sixty days in the primary evaluable cohort. Though the study was not powered to evaluate efficacy, a secondary endpoint (directed to evaluating efficacy) was the incidence of the composite of death and major adverse cardiac events (“MACE”) in the primary cohort. MACE includes myocardial infarction, urgent revascularization, and ischemia requiring hospitalization. Pharmacokinetics and pharmacodynamics were assessed at selected sites across the treatment groups. Other secondary endpoints included the incidence of TIMI major and minor bleeding in the secondary evaluable cohort i.e., those individuals who received the loading dose only.
The secondary cohort consisted of non-PCI patients who were treated medically (n=382) or underwent CABG (n=75). […] These included two vascular access site and one post-operative (surgical hip replacement) bleed.

[2] = Monkey bleeding liability study: surgical blood loss from femoral incision site; assay type: in vivo, cynomolgus monkeys; conditions: anesthetized monkeys, single oral dose (SCH 530348 1 mg/kg, ASA 10 mg/kg, clopidogrel 2 mg/kg), mean ± SEM
Method: Any novel antiplatelet agent should optimally avoid incremental bleeding risk relative to the current standard of care. The bleeding risk of SCH 530348 was evaluated in anesthetized cynomoigus monkeys in which SCH 530348 was administered alone and along with aspirin and clopidogrel. Bleeding assessment was conducted following administration of single doses of SCH 530348 (1 mg/kg) and/or aspirin (10 mg/kg, ASA) and clopidogrel (2 mg/kg). Four groups of monkeys were dosed orally with either vehicle (the medium used to dissolve the drug, 0.4% methylcellulose) or drug (n=5-6/group): Group I: vehicle, Group II: SCH 530348 (1 mg/kg), Group III ASA (10 mg/kg) plus clopidogrel (2 mg/kg) and Group IV: combination of SCH 530348, ASA plus clopidogrel. Doses of various drugs used inhibited their respective platelet pathways by >90% as assessed by ex-vivo platelet aggregation in whole blood. Two hours after dosing, animals were anesthetized and bleeding risk was assessed by forearm template bleeding time and surgical blood loss from a femoral incision site.
Surgical blood loss was assessed as follows. The femoral artery and femoral vein on the hind leg of the anesthetized monkey were surgically isolated by cutting with a scalpel blade. […] A small sample was read in a spectrophotometer (at […]) and the volume of blood loss was derived from a standard curve. […]

hERG = hERG (Homo sapiens, UniProt Q12809); assay: hERG voltage clamp assay; assay type: cell-based
hERG, sequence (Q12809 whole entry, the tested form may be a part): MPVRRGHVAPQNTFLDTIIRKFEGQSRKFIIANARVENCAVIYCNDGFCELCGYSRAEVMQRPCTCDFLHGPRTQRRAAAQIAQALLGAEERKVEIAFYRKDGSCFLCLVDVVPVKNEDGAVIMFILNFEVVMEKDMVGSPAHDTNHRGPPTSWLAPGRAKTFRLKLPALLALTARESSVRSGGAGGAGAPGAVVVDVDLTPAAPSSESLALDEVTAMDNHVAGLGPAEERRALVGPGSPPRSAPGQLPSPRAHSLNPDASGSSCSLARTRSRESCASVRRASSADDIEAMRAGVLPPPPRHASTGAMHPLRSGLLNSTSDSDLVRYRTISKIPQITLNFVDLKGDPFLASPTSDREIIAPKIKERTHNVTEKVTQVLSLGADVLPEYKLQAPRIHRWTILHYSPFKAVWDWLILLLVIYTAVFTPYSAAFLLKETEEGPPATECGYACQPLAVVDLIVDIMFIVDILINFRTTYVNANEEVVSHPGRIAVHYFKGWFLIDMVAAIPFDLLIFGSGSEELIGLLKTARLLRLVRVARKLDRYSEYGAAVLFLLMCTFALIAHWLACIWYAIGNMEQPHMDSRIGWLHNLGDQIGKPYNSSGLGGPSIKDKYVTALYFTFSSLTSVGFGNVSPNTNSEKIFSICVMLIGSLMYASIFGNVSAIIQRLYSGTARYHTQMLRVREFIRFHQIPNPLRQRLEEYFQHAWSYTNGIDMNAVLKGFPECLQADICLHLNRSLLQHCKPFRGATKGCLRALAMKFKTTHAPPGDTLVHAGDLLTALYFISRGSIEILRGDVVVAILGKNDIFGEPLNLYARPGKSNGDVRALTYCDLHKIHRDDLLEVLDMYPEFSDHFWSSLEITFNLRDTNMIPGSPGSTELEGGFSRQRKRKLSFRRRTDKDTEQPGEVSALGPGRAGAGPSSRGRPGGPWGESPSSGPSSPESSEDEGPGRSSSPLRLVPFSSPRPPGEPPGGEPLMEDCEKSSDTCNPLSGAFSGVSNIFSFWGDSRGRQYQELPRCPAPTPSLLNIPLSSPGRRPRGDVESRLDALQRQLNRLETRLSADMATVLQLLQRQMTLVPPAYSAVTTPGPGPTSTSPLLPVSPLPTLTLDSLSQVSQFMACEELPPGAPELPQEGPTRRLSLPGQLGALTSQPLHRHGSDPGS

[3] = Phase 2 study (P03573): bleeding in secondary cohort undergoing CABG; assay type: in vivo, humans; conditions: for Any bleed, patients (%) / Chest Tube Drainage / TIMI Major/Minor bleeding, patients (%) / Transfusion PRBC, patients (%) / non-TIMI bleeding, patients (%): secondary cohort (CABG treated)
Excerpt: as §1
The use of TIMI bleeding classification alone is of limited value and can be misleading in defining bleeding risk in patients undergoing CABG because of the routine use of packed red blood cell (“PRBC”) transfusions to prime the pump and extracorporeal oxygenator, and the resultant decline in hemoglobin that results from the administration of parenteral fluids during surgery. Therefore, other clinically meaningful measures (e.g., chest tube drainage, transfusions, need for re-exploration) were examined.

platelets = assay: Collagen-induced platelet aggregation; assay type: in vivo, humans; conditions: collagen 5 and 50 μg/ml; loading and maintenance doses
Method: A pharmacodynamic substudy incorporating light aggregometry was performed under stringent physiologic conditions and read by a central core laboratory. […] The term “therpeutically effective amount of a thrombin receptor antagonist” will be understood to mean that quantity of the thrombin receptor antagonist sufficient to achieve at least 80% inhibition of TRAP mediated platelet aggregation.
Similarly, there is no effect on arachidonic acid (“AA”) -induced platelet aggregation (see FIGS. 16 and 17) or collagen-induced platelet aggregation (see FIGS. 18-21).

With `CCOC(=O)N[C@@H]1CC[C@@H]2[C@@H](C1)C[C@H]1C(=O)O[C@H](C)[C@H]1[C@H]2/C=C/c1ccc(-c2cccc(F)c2)cn1.O=S(=O)(O)O` [SCH 530348, ethyl [(1R,3aR,4aR,6R,8aR,9S,9aS)-9-[(E)-2-[5-(3-fluorophenyl)-2-pyridinyl]ethenyl]-dodecahydro-1-methyl-3-oxonaphtho[2,3-c]furan-6-yl] carbamate bisulfate] the “Any bleed, patients (%)” value ([1]; 10 mg loading dose) was 8%, the “non-TIMI bleeding, patients (%)” value ([1]; 10 mg loading dose) was 8% and the “Any bleed, patients (%)” value ([1]; 20 mg loading dose) was 12 (12%). For the same compound, the “TIMI Major/Minor bleeding, patients (%)” value ([1]; 20 mg loading dose) was 2 (2%), the “TIMI Minor bleeding, patients (%)” value ([1]; 20 mg loading dose) was 2 (2%) and the “non-TIMI bleeding, patients (%)” value ([1]; 20 mg loading dose) was 11 (11%). The “Any bleed, patients (%)” value ([1]; 40 mg loading dose) was 10%, the “TIMI Major/Minor bleeding, patients (%)” value ([1]; 40 mg loading dose) was 1 (1%) and the “TIMI Minor bleeding, patients (%)” value ([1]; 40 mg loading dose) was 1 (1%). The “non-TIMI bleeding, patients (%)” value ([1]; 40 mg loading dose) was 10%, the “Any bleed, patients (%)” value ([1]; All SCH 530348) was 10% and the “TIMI Major/Minor bleeding, patients (%)” value ([1]; All SCH 530348) was 1%. For the same compound, the “TIMI Minor bleeding, patients (%)” value ([1]; All SCH 530348) was 1%, the “non-TIMI bleeding, patients (%)” value ([1]; All SCH 530348) was 10% and the Surgical blood loss [2] was 0.18 mL/h. The Surgical blood loss ([2]; listed as Group II) was 0.18 ± 0.03 mL/h, the IC50 (hERG) was about 0.341 µM and the “Total chest tube drainage, proportion with >2 units PRBC transfusion, need for re-exploration versus placebo” value ([3]; patients who underwent CABG) was “no increase”. The “Any bleed, patients (%)” value ([3]; 10 mg loading dose) was 100%, the “Chest Tube Drainage” value ([3]; 10 mg loading dose) was 1393 mL and the “TIMI Major/Minor bleeding, patients (%)” value ([3]; 10 mg loading dose) was 90%. For the same compound, the “Transfusion PRBC, patients (%)” value ([3]; 10 mg loading dose) was 80%, the “non-TIMI bleeding, patients (%)” value ([3]; 10 mg loading dose) was 30% and 20% and the “Any bleed, patients (%)” value ([3]; 20 mg loading dose) was 100%. The “Chest Tube Drainage” value ([3]; 20 mg loading dose) was 1015 mL, the “TIMI Major/Minor bleeding, patients (%)” value ([3]; 20 mg loading dose) was 94% and the “Transfusion PRBC, patients (%)” value ([3]; 20 mg loading dose) was 50%. For the same compound, the “non-TIMI bleeding, patients (%)” value ([3]; 20 mg loading dose) was 33%, the “Any bleed, patients (%)” value ([3]; 40 mg loading dose) was 100% and the “Chest Tube Drainage” value ([3]; 40 mg loading dose) was 870 mL. For the same compound, the “TIMI Major/Minor bleeding, patients (%)” value ([3]; 40 mg loading dose) was 92%, the “Transfusion PRBC, patients (%)” value ([3]; 40 mg loading dose) was 63% and the “non-TIMI bleeding, patients (%)” value ([3]; 40 mg loading dose) was 39%. For the same compound, the “Any bleed, patients (%)” value ([3]; All SCH 530348) was 100%, the “Chest Tube Drainage” value ([3]; All SCH 530348) was 988 mL and the “TIMI Major/Minor bleeding, patients (%)” value ([3]; All SCH 530348) was 94% and 92%. The “Transfusion PRBC, patients (%)” value ([3]; All SCH 530348) was 62%, the “non-TIMI bleeding, patients (%)” value ([3]; All SCH 530348) was 35% and 33% and the “Effect on collagen-induced platelet aggregation” value (platelets) was “no effect”.
